The values that follow come from patent US11958869B2, “Ruthenium arene Schiff-base complexes and uses thereof” (CITY UNIVERSITY OF HONG KONG, priority 2021, dated 2024).

Holding throughout (assay type): cell-based
Assay [1] deals with MDA-MB-231. Description: Anti-proliferative activity (MTT assay), MDA-MB-231. On the procedure: (§1) Cells were seeded in 96-well plates and maintained for 14-16 hours, then were treated with dimethylsulfoxide (DMSO) or test compound at various concentrations (i.e., 0.312, 1.25, 5, 20 μM) for 72 hrs. The cells were then washed with phosphate buffer saline (PBS) twice, added a medium containing 3-(4,5-dimethylthiazol-2-yl)-2,5-diphenyltetrazolium bromide (MTT) at a final concentration of 0.5 mg/mL, and incubated for 4 hr at 37° C. in a humidified incubator containing 5% CO2 in air. Cells having functional succinate dehydrogenase of mitochondria would convert MTT to formazan. Then, the medium was replaced with 100 μL of DMSO for 30 min at room temperature, and the 96-well plate was read by an ELISA reader at 550 nm to get the absorbance density values. The IC50 values of death cell lines were calculated accordingly.
(§2) The Ru^TEN complexes of Example 1 were evaluated for their anti-proliferative properties in two breast cancer cell lines, namely, MCF-7 and MDA-MB-231 cells via MTT assay. […] MCF-7 is a chemotherapy-responsive breast cancer cell line of luminal subtype with high expression of estrogen receptor (ER), whereas MDA-MB-231 is a triple negative breast cancer (TNBC) or basal-like breast cancer cell ine. TNBC is defined as highly invasive cancer that lacks expression of ER, progesterone receptor (PR) and Her-2; it has one of the worst outcomes among all subtypes of breast cancers. The aggressive nature of TNBC may be related to the presence of breast cancer stem cells within the tumor; therefore, MDA-MB-231 cells are often used as a model of mammary cancer stem cells.
(§3) The cytotoxicity of Ru^TEN complexes of Example 1 was compared to that of cisplatin or oxaliplatin, which were known to induce their anticancer effects by the mode of action different from ER stress. Three CSC-selective organic compounds, salinomycin, etoposide and abamectin, were also used for comparison. Briefly, MCF-7 and MDA-MB-231 cells were respectively treated with increasing concentrations of compounds of interest for 24 or 72 hrs and then the cell viability was measured.
On the technique in general: Tetrazolium dyes change colour on reduction, which living cells bring about.

For assay [2], the system named is MCF-7 mammospheres. Description: Mammosphere formation assay, MCF-7. The note with it: for Number of MCF-7 mammospheres / Size (μm) of MCF-7 mammospheres: primary mammospheres grown 96 hr, incubated with compound 72 hrs, >50 μm analyzed; for decrease in number of MCF-7 mammospheres / decrease in size of MCF-7 mammospheres: versus control. On the procedure: (§4) Since the breast cancer stem cells formed a mass of colonies in the form of floating spheres without attaching to a surface of a plate, the size and number of the masses were observed by a mammosphere formation assay to determine a cancer-stem-cell-specific effect.
(§5) Single-cell suspension was cultured at a density of 1,000 to 15,000 cells/well using a MammoCult™ Human Medium kit (Stemcell Technologies Inc Vancouver, CA), and the spherical cells were counted and observed under a microscope.
(§6) The mammosphere assay is based on the concept that when cells proliferate in three-dimensional spheroid structures, only cancer cells with stem-like characteristics are able to evade anoikis.

Assay [3] concerns MDA-MB-231 mammospheres. Description: Cytotoxicity in MDA-MB-231 mammospheres (Table 2). Particulars: read-out: IC50 (μM) MDA-MB-231 mammospheres 72 h.
Assay [4] relates to MDA-MB-231 secondary mammospheres. The assay is described as follows: Secondary mammosphere formation (self-renewal), MDA-MB-231. The note with it: for Number of MDA-MB-231 secondary mammospheres / Size (μm) of MDA-MB-231 secondary mammospheres: from drug-treated primary mammospheres, grown in drug-free conditions for 7 days; for propensity to form secondary mammospheres: single cells from drug-treated primary mammospheres, 7 days drug-free, FIG. 2. On the procedure: To this purpose, drug-treated primary MDA-MB-231 mammospheres were dissociated into single cell suspensions and incubated for 7 days in ultralow attachment drug-free conditions.

In assay [5] the test system is ALDHbright subpopulation of MDA-MB-231 cells. Description: ALDEFLUOR assay (ALDH activity). The note with it: versus control, FIG. 3. On the procedure: The cells were stained with […] bodipy-aminoacetaldehyde (BAAA), and then cultured at 37° C. for 45 minutes. An ALDH1 inhibitor, diethyl aminobenzaldehyde (DEAB), was used as the negative control. The stained cells were assayed using BD FACS Aria III. In this case, the positive fluorescent ALDH1-expressed cells (ALDH+) were detected in a green fluorescent channel (520 to 540 nm).
While CD44+/CD24−/low phenotype has often been associated with breast CSC/progenitor cell features, yet there is no correlation between the presence of CD44+/CD24−/low cells and clinical outcome and formation of distant metastases. It is the presence of aldehyde dehydrogenase (ALDH) bright cells which separates highly tumorigenic CD44+/CD24−/low/ALDHbright population from non-tumorigenic cells. Unlike CD44+/CD24−/low, ALDH is a predictor of metastasis and is associated with a poor clinical outcome. The main role of ALDH enzymes is the detoxification of aldehydes generated in various metabolic processes into carboxylic acids. However, several ALDH isoforms are involved in retinoic acid signaling and this particular function was linked to the “stemness” of CSCs. The functional activity of ALDHs can be accurately determined by ascertaining the cellular conversion of […] (BAAA) into a fluorescent molecule BODIPY-aminoacetate (BAA). ATP-binding cassette (ABC)-transporter inhibitors in the assay buffer prevent the efflux of BAA from the cells, resulting in the accumulation of BAA in cytoplasm.

Assay [6] concerns MCF-7. Description: cells. Particulars: read-out: IC50 (μM) MCF-7 72 h. As for the experimental part: as §1, §2, §3
The test system of assay [7] is MDA-MB-231 mammospheres. The assay is described as follows: Mammosphere formation assay, MDA-MB-231 primary. Particulars: for Number of MDA-MB-231 mammospheres / Size (μm) of MDA-MB-231 mammospheres: primary mammospheres grown 96 hr, incubated with compound 72 hrs, >50 μm analyzed; for decrease in number of MDA-MB-231 mammospheres / decrease in size of MDA-MB-231 mammospheres: versus control. As for the experimental part: as §4, §5, §6

Assay [8] deals with MDA-MB-231 mammospheres. The assay is described as follows: Viability of MDA-MB-231 mammospheres, Alamar Blue assay (Table 1). The note with it: for IC50: read-out: IC50 (μM), growth of MDA-MB-231 mammospheres.
The test system of assay [9] is MDA-MB-231 mammospheres. Description: Invasion / dispersion of spheroids into 3D collagen. Particulars: cells incubated with compound 72 hr, FIG. 4. The source says:
CSCs are associated with highly invasive phenotype and it is believed that this subset of cancer cells gives rise to metastases. In order to monitor the dissemination of MCF-7 and MDA-MB-231 breast cancer spheroids, the spheroids were embedded into three-dimensional (3D) collagen scaffold using Aim Biotech 3D cell culture chips. Collagen with spheroids was introduced into the central region of the microfluidic system where it polymerized via thermal cross-linking. Cell culture media was introduced into media channels forcing spheroids to move through collagen towards the media.
Thus, whether Ru^TEN complexes and salinomycin affected the invasive properties of MDA-MB-231 spheroids was then investigated. To this purpose, MDA-MB-231 monolayer cells were incubated with compounds of interest (e.g., Ru^TEN complexes of Examplel or salinomycin) for 72 hr, then the delamination was allowed to proceed for over 28 hr. Results are depicted in FIG. 4.

The mark [10] stands for this setting: 24 h, MTT, read-out: IC50 (μM) MDA-MB-231 24 h.
Where [11] appears, read: 72 h, MTT, read-out: IC50 (μM) MDA-MB-231 72 h.

Read-outs that look alike come from different tables or passages of the source.

Take `COc1cc([C@@H]2c3cc4c(cc3[C@@H](O[C@@H]3O[C@@H]5CO[C@@H](C)O[C@H]5[C@H](O)[C@H]3O)[C@H]3COC(=O)[C@H]23)OCO4)cc(OC)c1O` [Etoposide, etoposide]: the IC50 in assay [1] (Homo sapiens, MDA-MB-231, 24 h, read-out: IC50 (μM) MDA-MB-231 24 h) was > 1000 µM. Also, the IC50 in assay [1] (Homo sapiens, MDA-MB-231, 72 h, read-out: IC50 (μM) MDA-MB-231 72 h) was determined as 6.4 ± 1.2 µM. Also, in assay [2], the “Number of MCF-7 mammospheres” value is on record as 237 ± 11, the “Size (μm) of MCF-7 mammospheres” value came out at 135 ± 6 μm, the “decrease in number of MCF-7 mammospheres” value is given as 10-15% and the “decrease in size of MCF-7 mammospheres” value was “did not affect the size”. Also, the IC50 in assay [3] (Homo sapiens, MDA-MB-231, 72 h) is > 40 µM. Further, in assay [4], the “Number of MDA-MB-231 secondary mammospheres” value is 73 ± 22 and the “Size (μm) of MDA-MB-231 secondary mammospheres” value was found to be 63 ± 4 μm. The “reduction of ALDHbright sub-population” value in assay [5] was 52%. Besides, the IC50 in assay [6] (Homo sapiens, MCF7, 72 h) was 0.79 ± 0.21 µM. In addition, in assay [7], the “Number of MDA-MB-231 mammospheres” value is reported as 107 ± 37, the “Size (μm) of MDA-MB-231 mammospheres” value is 123 ± 20 μm, the “decrease in number of MDA-MB-231 mammospheres” value is 10-15% and the “decrease in size of MDA-MB-231 mammospheres” value was “did not affect the size”.
Turning to `O=C1[O][Pt]2([NH][C@@H]3CCCC[C@H]3[NH]2)[O]C1=O` [Oxaliplatin, oxaliplatin], in assay [1] (setting [10]), the IC50 came to 348 ± 78 µM. Also, the IC50 in assay [1] (setting [11]) came to 4.6 ± 1 µM. In addition, in assay [2], the “inhibition of mammosphere growth, MCF-7” value is on record as “did not show any potency in inhibiting mammosphere growth”; the “Number of MCF-7 mammospheres” value stood at 274 ± 93; the “Size (μm) of MCF-7 mammospheres” value was found to be 107 ± 17 μm. The IC50 in assay [3] (72 h) is > 40 µM. Besides, the “viability of MDA-MB-231 mammospheres” value in assay [8] is reported as “did not affect the viability”. Besides, in [4], the “Number of MDA-MB-231 secondary mammospheres” value came to 122 ± 10 and the “Size (μm) of MDA-MB-231 secondary mammospheres” value is recorded as 86 ± 14 μm. The IC50 in assay [6] (72 h, MTT) was found to be 1.1 ± 0.2 µM. Moreover, in [7], the “inhibition of mammosphere growth, MDA-MB-231” value is “did not show any potency in inhibiting mammosphere growth”; the “Number of MDA-MB-231 mammospheres” value is 144 ± 50; the “Size (μm) of MDA-MB-231 mammospheres” value came to 99 ± 27 μm.
`COc1ccc([N+]2=Cc3ccc4ccccc4[n+]3[Ru-]2[Cl])cc1.Cc1c(C)c(C)c(C)c(C)c1C.[Cl-]` [Ru^TEN2, [(η6-hexamethylbenzene)RuCl(4-methoxv-N-(2-quinolinyl-methylene)-aniline)]Cl]: the IC50 in [1] (setting [10]) was determined as 10 ± 1 µM. For the same compound, in [1] (setting [11]), the IC50 is 2.2 ± 0.3 µM. Further, in assay [2], the “Number of MCF-7 mammospheres” value amounted to 255 ± 175 and the “Size (μm) of MCF-7 mammospheres” value came to 114 ± 24 μm. Besides, in assay [3] (72 h), the IC50 is > 40 µM. Moreover, the IC50 in [8] is > 20 µM. In assay [9], the “dispersion of cells into collagen after 4 hr” value is “did not exhibit significant dispersion” and the “dispersion of cells into collagen after 28 hr / entire incubation period” value is “only slight dispersion”. For the same compound, in assay [4], the “Number of MDA-MB-231 secondary mammospheres” value is 186 ± 45; the “Size (μm) of MDA-MB-231 secondary mammospheres” value amounted to 85 ± 15 μm; the “propensity to form secondary mammospheres” value is “only slight changes in size and number of mammospheres”. In addition, the IC50 in assay [6] (72 h, MTT) was 4.1 ± 0.9 µM. In assay [7], the “inhibition of mammosphere growth, MDA-MB-231” value was “did not inhibit mammosphere growth”; the “Number of MDA-MB-231 mammospheres” value was 141 ± 41; the “Size (μm) of MDA-MB-231 mammospheres” value is on record as 98 ± 18 μm.
In the case of `Cc1c(C)c(C)c(C)c(C)c1C.Clc1cccc([N+]2=Cc3ccc4ccccc4[n+]3[Ru-]2[Cl])c1.[Cl-]` [Ru^TEN4, [(η6-Hexamethylbenzene)RuCl(3-chloro-N-(2-quinolinylmethylene)aniline)]Cl], the IC50 in [1] (setting [10]) stood at 9.2 ± 1.3 µM. Further, in [1] (setting [11]), the IC50 came out at 1.4 ± 0.3 µM. Besides, in assay [2], the “Number of MCF-7 mammospheres” value amounted to 236 ± 88, the “Size (μm) of MCF-7 mammospheres” value worked out at 105 ± 18 μm, the “decrease in number of MCF-7 mammospheres” value is 10% and the “decrease in size of MCF-7 mammospheres” value was 17%. Moreover, the IC50 in assay [3] (72 h) worked out at 7.2 ± 1.8 µM. For the same compound, in assay [8], the IC50 came to 11 µM. Moreover, in [9], the “dispersion of cells into collagen after 4 hr” value is listed as “did not exhibit significant dispersion” and the “dispersion of cells into collagen after 28 hr / entire incubation period” value is listed as “only slight dispersion”. Moreover, in [4], the “Number of MDA-MB-231 secondary mammospheres” value was determined as 91 ± 33, the “Size (μm) of MDA-MB-231 secondary mammospheres” value came out at 70 ± 6 μm and the “propensity to form secondary mammospheres” value is on record as “drastically reduced propensity to form secondary mammospheres”. For the same compound, the IC50 in assay [6] (72 h, MTT) was determined as 2.5 ± 0.7 µM. In [7], the “Number of MDA-MB-231 mammospheres” value came out at 118 ± 17, the “Size (μm) of MDA-MB-231 mammospheres” value came out at 95 ± 37 μm, the “decrease in number of MDA-MB-231 mammospheres” value is given as 17% and the “decrease in size of MDA-MB-231 mammospheres” value is 10%.
abamectin: the IC50 in [1] (setting [10]) worked out at 18 ± 6 µM; in assay [1] (setting [11]) it was 6.4 ± 2.3 µM; in [3] (72 h) it was 4 ± 0.5 µM; in assay [6] (72 h, MTT) it was 7 ± 2.2 µM. Also, the “Number of MCF-7 mammospheres” value in assay [2] is on record as 147 ± 33. The “Size (μm) of MCF-7 mammospheres” value in assay [2] is recorded as 77 ± 13 μm. Besides, the “Number of MDA-MB-231 mammospheres” value in assay [7] was found to be 4 ± 1. In assay [7], the “Size (μm) of MDA-MB-231 mammospheres” value was 76 ± 8 μm.

In general, IC50 refers to the concentration at which inhibition is half-maximal.
